From EPA's ToxValDB 9.5 (doi:10.2903/j.efsa.2005.15r)
≈ marks a conversion by molar mass, not a printed value.

What was measured:
Typhlodromus pyri = conditions: not reported; mortality
Oryctolagus sp. = conditions: reproduction developmental; mortality
Apis mellifera = conditions: acute, duration: 48 hours, mortality
Aphidius rhopalosiphi = conditions: not reported; mortality
Bird = conditions: acute; oral; unspecified; mortality
[1] = chronic/long-term, duration: 21 days

## COC(=O)c1ccccc1S(=O)(=O)NC(=O)N(C)c1nc(C)nc(OC)n1 [Tribenuron-methyl]
Rattus norvegicus; acute, oral, mortality
  LD50: > 5000 mg/kg
Rattus norvegicus; chronic, duration: 2 years, body weight
  NOAEL: 1 mg/kg-day
Rattus norvegicus; reproduction developmental, reproduction
  NOAEL: 19 mg/kg-day
Rattus norvegicus; subchronic, duration: 90 days, oral, body weight
  NOAEL: 7 mg/kg-day
Anas platyrhynchos; reproductive
  NOAEL: 21 mg/kg-day
Anas platyrhynchos; short-term, oral, feed, mortality
  LC50: > 974 mg/kg-day
Typhlodromus pyri
  LEL: 30 g/ha
Oryctolagus sp.
  NOAEL: 20 mg/kg-day
Apis mellifera; dermal
  LD50: > 98.4 µg/piece
Apis mellifera; oral, unspecified
  LD50: > 9.1 µg/piece
Oncorhynchus mykiss; acute, duration: 96 hours, mortality
  LC50: 738 µg/mL (≈ 1870 µM)
Oncorhynchus mykiss; [1]
  NOEC: 560 mg/L
Aphidius rhopalosiphi
  LEL: 30 g/ha
Daphnia magna; acute, duration: 48 hours, mortality
  LC50: > 894 µg/mL
Daphnia magna; [1]
  NOEC: 120 mg/L
Bird
  LD50: > 2250 mg/kg
